How the values were obtained:
[1] = tested on: A549; assay: MTT assay, A549; format: cell-based, human; conditions: Homo sapiens, A549, 48 h, lung adenocarcinoma, 48 h incubation
Procedure, shortened: (§1)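 5–10 × 10^3 cells/well, 24 h attach → compound 5, 10, 20, 50 µmol/L in medium, 48 h → MTT → 10% SDS, 24 h → A540. IC50 by nonlinear regression, n ≥ 3.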

[2] = tested on: HeLa; assay: MTT assay, HeLa; format: cell-based, human; conditions: cervical adenocarcinoma, 48 h incubation
Procedure, shortened: (§2)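 Cells (HeLa, HCT116 in RPMI 1640; A2058, PATU 8902 in DMEM; 10% FBS) were seeded at 5 × 10^3 to 10 × 10^3 per well, treated after 24 h with compound at 5, 10, 20 and 50 µmol/L for 48 h, then MTT-stained; formazan dissolved in 10% SDS, absorbance read at 540 nm.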

[3] = tested on: A2058; assay: MTT assay, A2058; format: cell-based; conditions: Homo sapiens, A2058, 48 h, human melanoma, 48 h incubation
Procedure, shortened: as §2

[4] = tested on: A2780; assay: MTT assay, A2780; format: cell-based, human; conditions: ovarian adenocarcinoma, 48 h incubation
Procedure, shortened: as §1

[5] = tested on: MCF-10A; assay: MTT assay, MCF-10A non-cancerous cells; format: cell-based, human; conditions: non-cancerous epithelial breast cells, 48 h incubation
Procedure, shortened: (§3)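 Human MCF-10A breast epithelial and BJ-5ta dermal fibroblast cells seeded 24 h, then exposed to compounds at 5, 10, 20 and 50 µmol/L for 48 h at 37 °C. MTT with SDS solubilization, absorbance 540 nm. IC50 from nonlinear regression, ≥3 independent repeats.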

[6] = tested on: Hep G2; assay: MTT assay, Hep G2; format: cell-based, human; conditions: Homo sapiens, HepG2, 48 h, hepatocellular carcinoma, 48 h incubation
Procedure, shortened: as §1

[7] = tested on: PATU; assay: MTT assay, PATU 8902; format: cell-based, human; conditions: Homo sapiens, PaTu 8902, 48 h, pancreas adenocarcinoma, 48 h incubation
Procedure, shortened: as §2

[8] = tested on: Bj-5ta; assay: MTT assay, BJ-5ta non-cancerous fibroblasts; format: cell-based, human; conditions: Homo sapiens, Fibroblast, 48 h, non-cancerous dermal fibroblasts, 48 h incubation
Procedure, shortened: as §3

[9] = tested on: HCT116; assay: MTT assay, HCT116; format: cell-based, human; conditions: colorectal adenocarcinoma, 48 h incubation
Procedure, shortened: as §2

## O=C(COc1ccc(/C=C2\SC(=O)N(Cc3cccc4cc5ccccc5nc34)C2=O)cc1)Nc1ccc([N+](=O)[O-])cc1 [Compound 8d, 2-(4-{[(5Z)-3-[(Acridin-4-yl)methyl]-2,4-dioxo-1,3-thiazolidin-5-ylidene]methyl}phenoxy)-N-(4-nitrophenyl)acetamide]
[1]
  IC50: > 50 µM
other
  melting point: > 300 °C (dec.)
[2]; Homo sapiens, HeLa, 48 h
  IC50: 44.9 ± 4.2 µM
[3]
  IC50: > 50 µM
[4]; Homo sapiens, A2780, 48 h
  IC50: > 50 µM
[5]; Homo sapiens, MCF-10A, 48 h
  IC50: > 50 µM
[6]
  IC50: > 50 µM
[7]
  IC50: > 50 µM
[8]
  IC50: > 50 µM
[9]; Homo sapiens, HCT-116, 48 h
  IC50: 47.6 ± 3.8 µM

## O=C(COc1ccc(/C=C2\SC(=O)N(Cc3cccc4cc5ccccc5nc34)C2=O)cc1)Nc1ccccc1C(F)(F)F [Compound 8e, 2-(4-{[(5Z)-3-[(Acridin-4-yl)methyl]-2,4-dioxo-1,3-thiazolidin-5-ylidene]methyl}phenoxy)-N-[2-(trifluoromethyl)phenyl]acetamide]
[1]
  IC50: > 50 µM
other
  melting point: 205 to 206 °C (dec.)
[2]; Homo sapiens, HeLa, 48 h
  IC50: 43.3 ± 5.2 µM
[3]
  IC50: > 50 µM
[4]; Homo sapiens, A2780, 48 h
  IC50: > 50 µM
[5]; Homo sapiens, MCF-10A, 48 h
  IC50: > 50 µM
[6]
  IC50: > 50 µM
[7]
  IC50: > 50 µM
[8]
  IC50: > 50 µM
[9]
  IC50: 24.3 ± 3.8 µM

## O=C(COc1ccc(/C=C2\SC(=O)N(Cc3cccc4cc5ccccc5nc34)C2=O)cc1)Nc1cccc(C(F)(F)F)c1 [Compound 8f, 2-(4-{[(5Z)-3-[(Acridin-4-yl)methyl]-2,4-dioxo-1,3-thiazolidin-5-ylidene]methyl}phenoxy)-N-[3-(trifluoromethyl)phenyl]acetamide]
[1]
  IC50: > 50 µM
other
  melting point: 219 to 220 °C (dec.)
[2]; Homo sapiens, HeLa, 48 h
  IC50: 27.7 ± 4.6 µM
[3]
  IC50: > 50 µM
[4]; Homo sapiens, A2780, 48 h
  IC50: > 50 µM
[5]; Homo sapiens, MCF-10A, 48 h
  IC50: > 50 µM
[6]
  IC50: > 50 µM
[7]
  IC50: > 50 µM
[8]
  IC50: > 50 µM
[9]; Homo sapiens, HCT-116, 48 h
  IC50: 25.1 ± 7.8 µM

## COc1cc(/C=C2\SC(=O)N(Cc3c4ccccc4nc4ccccc34)C2=O)ccc1OCC(=O)Nc1ccccc1 [Compound 12a, 2-(4-{[(5Z)-3-[(Acridin-9-yl)methyl]-2,4-dioxo-1,3-thiazolidin-5-ylidene]methyl}-2-methoxyphenoxy)-N-phenylacetamide]
[1]
  IC50: > 50 µM
other
  melting point: 260 to 262 °C
[2]; Homo sapiens, HeLa, 48 h
  IC50: 18.7 ± 0.45 µM
[3]
  IC50: > 50 µM
[4]
  IC50: > 50 µM
[5]
  IC50: > 50 µM
[6]
  IC50: > 50 µM
[7]
  IC50: > 50 µM
[8]
  IC50: > 50 µM
[9]
  IC50: > 50 µM

## COc1cc(NC(=O)COc2ccc(/C=C3\SC(=O)N(Cc4c5ccccc5nc5ccccc45)C3=O)cc2OC)cc(OC)c1 [Compound 12b, 2-(4-{[(5Z)-3-[(Acridin-9-yl)methyl]-2,4-dioxo-1,3-thiazolidin-5-ylidene]methyl}-2-methoxyphenoxy)-N-(3,5-dimethoxyphenyl)acetamide]
[1]
  IC50: 34.5 ± 5.4 µM
other
  melting point: 264 to 265 °C
[2]; Homo sapiens, HeLa, 48 h
  IC50: 7.3 ± 3.4 µM
[3]
  IC50: > 50 µM
[4]
  IC50: > 50 µM
[5]; Homo sapiens, MCF-10A, 48 h
  IC50: 15.6 ± 2.6 µM
[6]
  IC50: > 50 µM
[7]
  IC50: > 50 µM
[8]
  IC50: > 50 µM
[9]
  IC50: 10.2 ± 2.1 µM

## COc1cc(/C=C2\SC(=O)N(Cc3c4ccccc4nc4ccccc34)C2=O)ccc1OCC(=O)Nc1cc(OC)c(OC)c(OC)c1 [Compound 12c, 2-(4-{[(5Z)-3-[(Acridin-9-yl)methyl]-2,4-dioxo-1,3-thiazolidin-5-ylidene]methyl}-2-methoxyphenoxy)-N-(3,4,5-trimethoxyphenyl)acetamide]
[1]
  IC50: > 50 µM
other
  melting point: 268 to 269 °C
[2]; Homo sapiens, HeLa, 48 h
  IC50: 19.9 ± 2.05 µM
[3]
  IC50: > 50 µM
[4]; Homo sapiens, A2780, 48 h
  IC50: > 50 µM
[5]; Homo sapiens, MCF-10A, 48 h
  IC50: > 50 µM
[6]
  IC50: > 50 µM
[7]
  IC50: > 50 µM
[8]
  IC50: > 50 µM
[9]
  IC50: 15.1 ± 2 µM

## COc1cc(/C=C2\SC(=O)N(Cc3c4ccccc4nc4ccccc34)C2=O)ccc1OCC(=O)Nc1ccc([N+](=O)[O-])cc1 [Compound 12d, 2-(4-{[(5Z)-3-[(Acridin-9-yl)methyl]-2,4-dioxo-1,3-thiazolidin-5-ylidene]methyl}-2-methoxyphenoxy)-N-(4-nitrophenyl)acetamide]
[1]
  IC50: 31.2 ± 1.1 µM
other
  melting point: 288 to 290 °C
[2]
  IC50: 9.4 ± 0.3 µM
[3]
  IC50: > 50 µM
[4]; Homo sapiens, A2780, 48 h
  IC50: > 50 µM
[5]; Homo sapiens, MCF-10A, 48 h
  IC50: > 50 µM
[6]
  IC50: > 50 µM
[7]
  IC50: > 50 µM
[8]
  IC50: > 50 µM
[9]; Homo sapiens, HCT-116, 48 h
  IC50: 14.6 ± 1.7 µM

## COc1cc(/C=C2\SC(=O)N(Cc3c4ccccc4nc4ccccc34)C2=O)ccc1OCC(=O)Nc1ccccc1C(F)(F)F [Compound 12e, 2-(4-{[(5Z)-3-[(Acridin-9-yl)methyl]-2,4-dioxo-1,3-thiazolidin-5-ylidene]methyl}-2-methoxyphenoxy)-N-[2-(trifluoromethyl)phenyl]acetamide]
[1]
  IC50: 31.1 ± 4.2 µM
other
  melting point: 255 to 256 °C
[2]
  IC50: 28.2 ± 3.7 µM
[3]
  IC50: > 50 µM
[4]; Homo sapiens, A2780, 48 h
  IC50: > 50 µM
[5]; Homo sapiens, MCF-10A, 48 h
  IC50: > 50 µM
[6]
  IC50: > 50 µM
[7]
  IC50: > 50 µM
[8]
  IC50: > 50 µM
[9]
  IC50: 14.3 ± 1.8 µM

## COc1cc(/C=C2\SC(=O)N(Cc3c4ccccc4nc4ccccc34)C2=O)ccc1OCC(=O)Nc1cccc(C(F)(F)F)c1 [Compound 12f, 2-(4-{[(5Z)-3-[(Acridin-9-yl)methyl]-2,4-dioxo-1,3-thiazolidin-5-ylidene]methyl}-2-methoxyphenoxy)-N-[3-(trifluoromethyl)phenyl]acetamide]
[1]
  IC50: > 50 µM
other
  melting point: 269 to 270 °C
[2]; Homo sapiens, HeLa, 48 h
  IC50: 11.5 ± 3.3 µM
[3]
  IC50: > 50 µM
[4]; Homo sapiens, A2780, 48 h
  IC50: > 50 µM
[5]; Homo sapiens, MCF-10A, 48 h
  IC50: > 50 µM
[6]
  IC50: > 50 µM
[7]
  IC50: > 50 µM
[8]
  IC50: > 50 µM
[9]
  IC50: > 50 µM

## COc1cc(/C=C2\SC(=O)N(Cc3c4ccccc4nc4ccccc34)C2=O)ccc1OCC(=O)Nc1cc(C(F)(F)F)cc(C(F)(F)F)c1 [Compound 12g, 2-(4-{[(5Z)-3-[(Acridin-9-yl)methyl]-2,4-dioxo-1,3-thiazolidin-5-ylidene]methyl}-2-methoxyphenoxy)-N-[3,5-bis(trifluoromethyl)phenyl]acetamide]
[1]
  IC50: > 50 µM
other
  melting point: 287 to 288 °C
[2]; Homo sapiens, HeLa, 48 h
  IC50: 20.7 ± 5.3 µM
[3]
  IC50: > 50 µM
[4]; Homo sapiens, A2780, 48 h
  IC50: > 50 µM
[5]; Homo sapiens, MCF-10A, 48 h
  IC50: > 50 µM
[6]
  IC50: > 50 µM
[7]
  IC50: > 50 µM
[8]
  IC50: > 50 µM
[9]
  IC50: 6.7 ± 2 µM

## COc1cc(/C=C2\SC(=O)N(Cc3cccc4cc5ccccc5nc34)C2=O)ccc1OCC(=O)Nc1ccccc1 [Compound 13a, 2-(4-{[(5Z)-3-[(Acridin-4-yl)methyl]-2,4-dioxo-1,3-thiazolidin-5-ylidene]methyl}-2-methoxyphenoxy)-N-phenylacetamide]
[1]
  IC50: > 50 µM
other
  melting point: 213 to 214 °C
[2]; Homo sapiens, HeLa, 48 h
  IC50: 41.9 ± 5.7 µM
[3]
  IC50: 49.1 ± 0.85 µM
[4]; Homo sapiens, A2780, 48 h
  IC50: > 50 µM
[5]; Homo sapiens, MCF-10A, 48 h
  IC50: > 50 µM
[6]
  IC50: > 50 µM
[7]
  IC50: > 50 µM
[8]
  IC50: > 50 µM
[9]; Homo sapiens, HCT-116, 48 h
  IC50: > 50 µM

Source: article PMC11280325, “Design, Synthesis, and Characterization of Novel Thiazolidine-2,4-Dione-Acridine Hybrids as Antitumor Agents” (Molecules, 2024)
